Patent publication US20200016136A1 (VIIV HEALTHCARE UK (NO. 5) LIMITED, priority 2017, published 2020)

System: NL-RLuc virus (recombinant NL4-3 HIV with Renilla Luciferase gene)
Assay: Inhibition of HIV replication (NL-RLuc virus in MT-2 cells, luciferase readout)
Assay type: cell-based, Human immunodeficiency virus (HIV)
Settings: MT2, 120 h
Method in brief: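 EC50 derived via median effect equation from at least 2 experiments, using luciferase expression as virus-growth readout. Replication-competent NL-RLuc reporter virus (nef partly replaced by Renilla luciferase) infected MT-2 cells with serial compound dilutions; 5-day incubation in RPMI 1640 plus 10% FBS.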

Row | SMILES | EC50
1 | Cc1nc(C)c([C@H](OC(C)(C)C)C(=O)O)c(N2CCC(C)(C)CC2)c1-c1ccc2c(c1)CCN(c1cc(-c3cccc(Cl)c3)ncn1)C2 [Example 82, (S)-2-(tert-Butoxy)-2-(5-(2-(6-(3-chlorophenyl)pyrimidin-4-yl)-1,2,3,4-tetrahydroisoquinolin-6-yl)-4-(4,4-dimethylpiperidin-1-yl)-2,6-dimethylpyridin-3-yl)acetic Acid] | 15 nM
2 | Cc1nc(C)c([C@H](OC(C)(C)C)C(=O)O)c(N2CCC(C)(C)CC2)c1-c1ccc2c(c1)CCN(c1ccnc(N3CCS(=O)(=O)CC3)n1)C2 [Example 45, (S)-2-(tert-Butoxy)-2-(4-(4,4-dimethylpiperidin-1-yl)-5-(2-(2-(1,1-dioxidothiomorpholino)pyrimidin-4-yl)-1,2,3,4-tetrahydroisoquinolin-6-yl)-2,6-dimethylpyridin-3-yl)acetic Acid] | 8 nM
3 | Cc1nc(C)c([C@H](OC(C)(C)C)C(=O)O)c(N2CCC(C)(C)CC2)c1-c1ccc2c(c1)CCN(c1ccc(C(F)(F)F)cn1)C2 [Example 143, (S)-2-(tert-butoxy)-2-(4-(4,4-dimethylpiperidin-1-yl)-2,6-dimethyl-5-(2-(5-(trifluoromethyl)pyridin-2-yl)-1,2,3,4-tetrahydroisoquinolin-6-yl)pyridin-3-yl)acetic Acid] | 14 nM
4 | Cc1nc(C)c([C@H](OC(C)(C)C)C(=O)O)c(N2CCC(C)(C)CC2)c1-c1ccc2c(c1)CCN(c1cc(N3CCC(N4CCN(C)CC4)CC3)ncn1)C2 [Example 136, (S)-2-(tert-Butoxy)-2-(4-(4,4-dimethylpiperidin-1-yl)-2,6-dimethyl-5-(2-(6-(4-(4-methylpiperazin-1-yl)piperidin-1-yl)pyrimidin-4-yl)-1,2,3,4-tetrahydroisoquinolin-6-yl)pyridin-3-yl)acetic Acid] | 16 nM
5 | Cc1nc(C)c([C@H](OC(C)(C)C)C(=O)O)c(N2CCC(C)(C)CC2)c1-c1ccc2c(c1)CCN(c1nccc(N3CCC(CC(C)(C)O)CC3)n1)C2 [Example 145, (S)-2-(tert-Butoxy)-2-(4-(4,4-dimethylpiperidin-1-yl)-5-(2-(4-(4-(2-hydroxy-2-methylpropyl)piperidin-1-yl)pyrimidin-2-yl)-1,2,3,4-tetrahydroisoquinolin-6-yl)-2,6-dimethylpyridin-3-yl)acetic Acid] | 10 nM
6 | COc1c(N2CCOCC2)ncnc1N1CCc2cc(-c3c(C)nc(C)c([C@H](OC(C)(C)C)C(=O)O)c3N3CCC(C)(C)CC3)ccc2C1 [Example 67, (S)-2-(tert-Butoxy)-2-(4-(4,4-dimethylpiperidin-1-yl)-5-(2-(5-methoxy-6-morpholinopyrimidin-4-yl)-1,2,3,4-tetrahydroisoquinolin-6-yl)-2,6-dimethylpyridin-3-yl)acetic Acid] | 2 nM
7 | Cc1nc(C)c([C@H](OC(C)(C)C)C(=O)O)c(N2CCC(C)(C)CC2)c1-c1ccc2c(c1)CCN(c1nccc(N3CCCCC3)n1)C2 [Example 23, (2S)-2-(tert-Butoxy)-2-[4-(4,4-dimethylpiperidin-1-yl)-2,6-dimethyl-5-{2-[4-(piperidin-1-yl)pyrimidin-2-yl]-1,2,3,4-tetrahydroisoquinolin-6-yl}pyridin-3-yl]acetic Acid] | 3 nM
8 | Cc1nc(C)c([C@H](OC(C)(C)C)C(=O)O)c(N2CCC(C)(C)CC2)c1-c1ccc2c(c1)CCN(c1cc(N3CCOCC3)cnn1)C2 [Example 55, (S)-2-(tert-Butoxy)-2-(4-(4,4-dimethylpiperidin-1-yl)-2,6-dimethyl-5-(2-(5-morpholinopyridazin-3-yl)-1,2,3,4-tetrahydroisoquinolin-6-yl)pyridin-3-yl)acetic Acid] | 21 nM
9 | Cc1cccc(Cl)c1CN1CCc2cc(-c3c(C(=O)N4CCC(C)(C)CC4)nc(C)c([C@H](OC(C)(C)C)C(=O)O)c3N3CCC(C)(C)CC3)ccc2C1 [Example 118, (S)-2-(tert-Butoxy)-2-(5-(2-(2-chloro-6-methylbenzyl)-1,2,3,4-tetrahydroisoquinolin-6-yl)-4-(4,4-dimethylpiperidin-1-yl)-6-(4,4-dimethylpiperidine-1-carbonyl)-2-methylpyridin-3-yl)acetic Acid] | 1 nM
10 | Cc1nc(C)c([C@H](OC(C)(C)C)C(=O)O)c(N2CCC(C)(C)CC2)c1-c1ccc2c(c1)CCN(c1nccc(-c3cccnc3)n1)C2 [Example 105, (S)-2-(tert-Butoxy)-2-(4-(4,4-dimethylpiperidin-1-yl)-2,6-dimethyl-5-(2-(4-(pyridin-3-yl)pyrimidin-2-yl)-1,2,3,4-tetrahydroisoquinolin-6-yl)pyridin-3-yl)acetic Acid] | 1 nM
11 | Cc1nc(C)c([C@H](OC(C)(C)C)C(=O)O)c(N2CCC(C)(C)CC2)c1-c1ccc2c(c1)CCN(c1nccc(N3CCC3)n1)C2 [Example 19, (2S)-2-(5-{2-[4-(Azetidin-1-yl)pyrimidin-2-yl]-1,2,3,4-tetrahydroisoquinolin-6-yl}-4-(4,4-dimethylpiperidin-1-yl)-2,6-dimethylpyridin-3-yl)-2-(tert-butoxy)acetic Acid] | 1 nM
12 | CN(Cc1nc(Cl)c([C@H](OC(C)(C)C)C(=O)O)c(N2CCC(C)(C)CC2)c1-c1ccc2c(c1)CCN(c1ncnc3c1oc1ccccc13)C2)CC1CCOCC1 [Example 112, (S)-2-(5-(2-(Benzofuro[3,2-d]pyrimidin-4-yl)-1,2,3,4-tetrahydroisoquinolin-6-yl)-2-chloro-4-(4,4-dimethylpiperidin-1-yl)-6-((methyl((tetrahydro-2H-pyran-4-yl)methyl)amino)methyl)pyridin-3-yl)-2-(tert-butoxy)acetic Acid] | 0.3 nM
13 | Cc1nc(C)c([C@H](OC(C)(C)C)C(=O)O)c(N2CCC(C)(C)CC2)c1-c1ccc2c(c1)CCN(c1ncnc(N3C[C@@H](C)O[C@@H](C)C3)n1)C2 [Example 68, (S)-2-(tert-Butoxy)-2-(5-(2-(4-((2R,6S)-2,6-dimethylmorpholino)-1,3,5-triazin-2-yl)-1,2,3,4-tetrahydroisoquinolin-6-yl)-4-(4,4-dimethylpiperidin-1-yl)-2,6-dimethylpyridin-3-yl)acetic Acid] | 1 nM
14 | CC1(C)CCN(c2c(-c3ccc4c(c3)CCN(c3nccc(N5CCOCC5)n3)C4)cnc(Cl)c2[C@H](OC(C)(C)C)C(=O)O)CC1 [Example 148, (S)-2-(tert-Butoxy)-2-(2-chloro-4-(4,4-dimethylpiperidin-1-yl)-5-(2-(4-morpholinopyrimidin-2-yl)-1,2,3,4-tetrahydroisoquinolin-6-yl)pyridin-3-yl)acetic Acid] | 0.2 nM
15 | Cc1nc(C)c([C@H](OC(C)(C)C)C(=O)O)c(N2CCC(C)(C)CC2)c1-c1ccc2c(c1)CCN(c1cc(N3CCC(C)CC3)ncn1)C2 [Example 138, (S)-2-(tert-Butoxy)-2-(4-(4,4-dimethylpiperidin-1-yl)-2,6-dimethyl-5-(2-(6-(4-methylpiperidin-1-yl)pyrimidin-4-yl)-1,2,3,4-tetrahydroisoquinolin-6-yl)pyridin-3-yl)acetic Acid] | 2 nM
16 | CC1(C)CCN(c2c(-c3ccc4c(c3)CCN(c3nccc(N5CCC(C(C)(C)O)CC5)n3)C4)cnc(Cl)c2[C@H](OC(C)(C)C)C(=O)O)CC1 [Example 93, (S)-2-(tert-Butoxy)-2-(2-chloro-4-(4,4-dimethylpiperidin-1-yl)-5-(2-(4-(4-(2-hydroxypropan-2-yl)piperidin-1-yl)pyrimidin-2-yl)-1,2,3,4-tetrahydroisoquinolin-6-yl)pyridin-3-yl)acetic Acid] | 8 nM
17 | Cc1nc(C)c([C@H](OC(C)(C)C)C(=O)O)c(N2CCC(C)(C)CC2)c1-c1ccc2c(c1)CCN(c1nc(N3CCOCC3)nn3cccc13)C2 [Example 84, (S)-2-(tert-Butoxy)-2-(4-(4,4-dimethylpiperidin-1-yl)-2,6-dimethyl-5-(2-(2-morpholinopyrrolo[2,1-f][1,2,4]triazin-4-yl)-1,2,3,4-tetrahydroisoquinolin-6-yl)pyridin-3-yl)acetic Acid] | 6 nM
18 | Cc1cccc(N2CCc3cc(-c4c(C)nc(C)c([C@H](OC(C)(C)C)C(=O)O)c4N4CCC(C)(C)CC4)ccc3C2)n1 [Example 89, (S)-2-(tert-Butoxy)-2-(4-(4,4-dimethylpiperidin-1-yl)-2,6-dimethyl-5-(2-(6-methylpyridin-2-yl)-1,2,3,4-tetrahydroisoquinolin-6-yl)pyridin-3-yl)acetic Acid] | 3 nM
19 | Cc1nc(C)c([C@H](OC(C)(C)C)C(=O)O)c(N2CCC(C)(C)CC2)c1-c1ccc2c(c1)CCN(c1nccc(N3C4CCC3COC4)n1)C2 [Example 32, (2S)-2-(tert-Butoxy)-2-[4-(4,4-dimethylpiperidin-1-yl)-2,6-dimethyl-5-[2-(4-{3-oxa-8-azabicyclo[3.2.1]octan-8-yl}pyrimidin-2-yl)-1,2,3,4-tetrahydroisoquinolin-6-yl]pyridin-3-yl]acetic Acid] | 1 nM
20 | Cc1cccc(Cl)c1CN1CCc2cc(-c3c(CO)ncc([C@H](OC(C)(C)C)C(=O)O)c3N3CCC(C)(C)CC3)ccc2C1 [Example 117, (S)-2-(tert-Butoxy)-2-(5-(2-(2-chloro-6-methylbenzyl)-1,2,3,4-tetrahydroisoquinolin-6-yl)-4-(4,4-dimethylpiperidin-1-yl)-6-(hydroxymethyl)pyridin-3-yl)acetic Acid] | 1 nM
21 | CC1(C)CCN(c2c(-c3ccc4c(c3)CCN(c3ncnc5c3oc3ccccc35)C4)c(CNCCS(C)(=O)=O)nc(Cl)c2[C@H](OC(C)(C)C)C(=O)O)CC1 [Example 110, (S)-2-(5-(2-(Benzofuro[3,2-d]pyrimidin-4-yl)-1,2,3,4-tetrahydroisoquinolin-6-yl)-2-chloro-4-(4,4-dimethylpiperidin-1-yl)-6-(((2-(methylsulfonyl)ethyl)amino)methyl)pyridin-3-yl)-2-(tert-butoxy)acetic Acid] | 110 nM
22 | Cc1cn(-c2cc(N3CCc4cc(-c5c(C)nc(C)c([C@H](OC(C)(C)C)C(=O)O)c5N5CCC(C)(C)CC5)ccc4C3)ncn2)cn1 [Example 132, (S)-2-(tert-Butoxy)-2-(4-(4,4-dimethylpiperidin-1-yl)-2,6-dimethyl-5-(2-(6-(4-methyl-1H-imidazol-1-yl)pyrimidin-4-yl)-1,2,3,4-tetrahydroisoquinolin-6-yl)pyridin-3-yl)acetic Acid] | 2 nM
